The source of these data is ChEMBL document CHEMBL1201862, “PubChem BioAssay data set” (2004).

Among the test systems are 786-0; A549; BT-549; DU-145; HCC 2998; KM12; LOX IMVI; M14; MCF7; MOLT-4; NCI-H522; OVCAR-5; SF-295; SF-539; SK-MEL-28; SNB-75; SW-620; UACC-257; UACC-62; UO-31.
Holding throughout (assay): growth of human tumour cells (NCI), 48 h

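1) Cells in 96-well plates. 2) Compound, 48 h, 5 concentrations. 3) Linear interpolation between surrounding doses. 4) Unreached endpoint = highest concentration. Here, GI50 denotes the concentration required for 50% inhibition of growth.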 Calls of active or inactive are those of the source. Rule as the data show it: active = GI50 up to about 1.1 µM and inactive = higher.

Consider `COc1cc(C(=O)Nc2c3ccccc3nc3ccccc23)cc(OC)c1OC`, for which the GI50 with 786-0, in the assay on A549, in the assay on BT-549, with DU-145, in the assay on HCC 2998 and in the assay with KM12 was > 100 µM (inactive) throughout. The GI50 was > 100 µM (inactive) with LOX IMVI; > 53.6 µM (inactive) in the assay on M14; > 100 µM (inactive) in the assay on MCF7; 23.2 µM (inactive) with MOLT-4; 42 µM (inactive) in the assay with NCI-H522; > 100 µM (inactive) with OVCAR-5. The GI50 in the assay on SF-295 is 35.6 µM (inactive); with SF-539 it was > 100 µM (inactive); in the assay on SK-MEL-28, > 100 µM (inactive); with SNB-75, 0.885 µM (active); in the assay on SW-620, > 100 µM (inactive); in the assay with UACC-257 it was > 100 µM (inactive). Besides, the GI50 in the assay with UACC-62 was > 34.7 µM (inactive); in the assay on UO-31, 40.3 µM (inactive).

Turning to `C/C(=N\N)C(CN(C)C)C(c1ccccc1)c1c(O)c2ccccc2oc1=O` (stereo not given), the GI50 in the assay with 786-0, with A549, with BT-549, in the assay with DU-145, in the assay on HCC 2998 and with KM12 was > 100 µM (inactive) each time. Besides, the GI50 with LOX IMVI is > 94.4 µM (inactive); in the assay with M14, > 100 µM (inactive); in the assay with MCF7, > 100 µM (inactive); with MOLT-4, > 55.5 µM (inactive); with NCI-H522, > 94.4 µM (inactive); in the assay on OVCAR-5, > 100 µM (inactive). Further, the GI50 in the assay with SF-295 was > 86.3 µM (inactive); in the assay on SF-539, > 100 µM (inactive); with SK-MEL-28, > 100 µM (inactive); in the assay with SNB-75 it was > 42.4 µM (inactive); in the assay with SW-620, > 100 µM (inactive); with UACC-257, > 100 µM (inactive). The GI50 is > 73.6 µM (inactive) with UACC-62 and > 100 µM (inactive) in the assay on UO-31.
